According to patent US11497740B2, “Use of Jumonji C demethylase inhibitors for the treatment and prevention of chemotherapy resistance and radioresistance in cancer” (THE BOARD OF REGENTS OF THE UNIVERSITY OF TEXAS SYSTEM, priority 2016, dated 2022):

Experiments:
[1] = system: immortalized normal human bronchial epithelial cells HBEC3KT and HBEC30KT; assay: Clonogenic survival with IR, normal bronchial epithelial cells; assay type: cell-based; settings: IC50 doses of JIB-04, 4 h prior to radiation
Procedure: Cells were serially diluted to appropriate concentrations and plated into 60-mm dish in triplicate for 4 h. Then cells were treated with the indicated drugs, and irradiated 4 hours later with graded doses of radiation for concurrent treatment or irradiated and 4 hours later the drugs added for post-treatment. All cells were irradiated at room temperature in ambient air using a 137Cs source (Mark 1-68 irradiator, JL Shepherd & Associated). Surviving colonies were stained with crystal violet approximately 10 to 14 days later and colonies formed with more than 50 cells were counted. Clonogenic fraction of irradiated cells was normalized to the plating efficiency of unirradiated controls. The data are presented as the mean±SD. The curve S=e^−(αD+βD2) was fitted to the experimental data using a least square fit algorithm using the program Sigma Plot 11.0 (Systat Software, Inc.).
To evaluate whether the effect of JIB-04 on DNA repair dynamics described above was cancer-selective, IC50 doses of JIB-04 in colony formation assays of immortalized normal human bronchial epithelial cells HBEC3KT and HBEC30KT were calculated (FIG. 27A). Then these doses of JIB-04 were used to pretreat cells 4 h prior to radiation and survival was measured. […]

[2] = system: RAD51; assay: RAD-51 foci kinetics after IR; assay type: cell-based, Human; settings: JIB-04 25 nM 4 h, 10 Gy
Procedure: NSCLCs were seeded onto Lab-Tek II Chamber Slides (Thermo Fisher) and 24 hours later pretreated with JIB-04 or DMSO for 4 h. Then cells were exposed to a total dose of 2 Gy (γH2AX and 53BP1) or 10 Gy (RAD-51 and DNAPKcs p-T2609) radiation. For knockdown and overexpression experiments H1299 cells were transfected using the Amaxa Nucleofector; program X-005. Specifically, 3×10^6 were transfected with siRNA duplexes targeting JMJD2A, JMJD2B, Jarid1A, Jarid1b, scrambled siRNA (250 nM final concentration) or expression vectors pCMVHA-JMJD2A, pCMVHA-JMJD2B, pCMVHA-Jarid1A, pCMVHA-Jarid1B, PC-2 for 72 hours, followed by quantification of expression or irradiation. Then, cells were fixed in 4% formaldehyde/PBS for 15 min, permeabilized with 0.5% Triton X-100 for 15 min on ice, and blocked with 5% bovine serum albumin in PBS for 1 h. The slides were incubated with an antibody against phospho-Histone γH2AX (1:1000, 3 h at room temperature), 53BP1 (1:500, 3 h at room temperature), Rad-51 (1:500, 48 hs 4° C.) or DNAPKcs p-T2609 (1:500, 48 hs 4° C.). Alexa Fluor 488-conjugated goat anti-Rabbit, […] goat anti-mouse or rhodamine red-conjugated goat anti-mouse secondaries antibodies were used (1:1000, 1 h at room temperature). […] Cells were analyzed on a Zeiss upright fluorescent microscope.

[3] = system: H1299 NSCLC xenografts; assay: Tumor growth delay with JIB-04 and IR, H1299 xenografts; assay type: in vivo, mice; settings: JIB-04 50 mg/kg oral gavage, IR 2 Gy 4 h after drug, every other day, 12 doses
Procedure: H1299 NSCLC cells were injected subcutaneously (5×10^6 cells in 100 μL) into the right posterior leg of female athymic nude mice (nu/nu, 5-6 weeks old). Treatment was initiated when the subcutaneous tumors reached an average size of 150 to 200 mm^3. Mice were treated with JIB-04 (50 mg/kg/day) by oral gavage or with vehicle (12.5% Cremophor EL, 12.5% DMSO as an aqueous suspension) as control; radiation was administered 4 hours after treatment. The treatment regimen consisted of a total of 12 doses of drug and/or ionizing radiation given every other day. Tumor growth delay and the dose enhancement factor were then determined. Body weight and general health were monitored every other day during the drug-treatment period and afterward. Standard survival criteria was applied to ensure animals including severe lethargy, 20% weight loss, tumor burden >2,000 mm^3 and difficulty breathing. Survival data was analyzed using GraphPad Prism software.

[4] = system: H3K9me3 demethylases; assay: Histone demethylase activity in H1299 cellular extracts (H3K9me3); assay type: cell-based, Human; settings: JIB-04 4 h, no IR
Procedure: For Histone demethylase activity determination 2×10^6 H1299 cells were seeded in P150 plates. After 24 h cells were pretreated with JIB-04 or DMSO for 4 h, irradiated with a total dose of 8 Gy of radiation. Then cells were sonicated (3×4 sec) and equal amounts of protein were incubated with a histone H3K4me3 or H3K9me3 substrate in a reaction buffer containing cofactors for 1 h at 37° C. Finally specific immune-detection of the H3K4me2 or H3K9me2 product using the Epigentek kit P-3081 for H3K9me3 demethylation and P-3083 for H3K4me3 demethylation. Background readings were given by heat inactivated extracts.

Question: What does the source list for `Clc1ccc(N/N=C(\c2ccccc2)c2ccccn2)nc1` [JIB-04]?
Answer: radiosensitization (clonogenic survival) [1]: did not radiosensitize; RAD51 foci resolution [2]: impaired foci resolution; RAD51 recruitment (foci formation) [2]: significantly diminished RAD51 recruitment; survival of tumor bearing mice, JIB-04 with IR [3]: survived significantly longer; tumor growth, JIB-04 with IR [3]: synergistic robust inhibition of tumor growth; basal H3K9me3 demethylase activity [4]: did not have any effects on basal activity
